Assay results as given in patent US9809521B2, “Cannabidinoid derivatives” (priority 2011, dated 2017).
Read-outs that look alike come from different tables or passages of the source.

How the values were obtained:
U251 cells = assay: MTT cell proliferation assay; details: Homo sapiens
4T1 cells [1] = assay: 4T1 i.v. mouse model of breast cancer metastasis, treatment from one day after injection; format: in vivo; details: for total amount of metastatic foci: 1 mg/kg i.p., 2 days after injection; for effect of CB2 receptor antagonist SR14458 on anti-metastatic activity: 14 days
Experimental: In-vivo model of breast cancer metastases: 4T1 cells were injected directly into the tail vein of syngeneic BALB/c mice. […] Two days after i.v. injection of 4T1 cells, the tumor bearing mice were injected i.p. once a day with vehicle or compound (1 mg/kg).
The 4T1 intravenous (i.v.) mouse model of breast cancer metastasis to assess the activity of CBD in vivo was utilized. […] One day after i.v. injection of the breast cancer cells, mice were treated daily for two weeks by intra-peritoneal injection with vehicle (used as a control) or CBD at a dose range of 0.1 to 5 mg/kg.
A survival study was carried out (FIG. 4, panel C).
To provide further support for this hypothesis in vivo, mice bearing 4T1 tumors were treated with CBD and the O-1663 CBD analog in the presence of a CB2 receptor antagonist (FIG. 27, panels D and E). […] In addition, a combination treatment with CBD and THC was included.
In-vivo studies of breast cancer metastases with CBD or O-1663 CBD analog. 4T1 cells were injected into the tail vein of syngeneic BALB/c mice and then were intraperitoneal injected 2 days later with either vehicle, CBD (1 mg/kg), or O-1663 CBD analog (1 mg/kg).

MDA-MB231 cells [2] = assay: Boyden chamber invasion assay; format: cell-based, human; details: for IC50: Homo sapiens
Experimental: Boyden chamber MDA-MB231 cell invasion studies with CBD, Δ^9-THC, or WIN 55,212-2. Invasion is an important step towards breast cancer cell metastasis. Therefore, the effects of several cannabinoids were tested on their ability to modulate the migratory and invasiveness activity of the most aggressive human breast cancer cell line, MDA-MB231, in a reconstituted basement membrane in a Boyden chamber.
Assays using Id-1 promoter reporter transfected MDA-MB231 cells with CBD. To determine if Id-1 represented a key mediator of CBD effects in highly aggressive breast cancer cells, Id-1 was constitutively expressed into MDA-MB231 cells (+)Id-1 as described in FIG. 2. The ectopic Id-1 gene, which is not under the control of the endogenous promoter, was introduced in the cells using the pLXSN retroviral vector. As a control, cells were infected with an empty pLXSN vector (−)Id-1.
Boyden chamber MDA-MB231 cell invasion studies with CBD and O-1663 CBD analog. Boyden chamber studies for invasion by MDA-MB231 or U251 cells were performed with either CBD or O-1663 CBD analog.
(§1) To directly test whether the O-1663 CBD analog could co-target two distinct cannabinoid antitumor pathways, the effects of CBD and the O-1663 CBD analog on cell viability with multiple antagonists were probed (FIG. 25). […] The ability of the O-1663 CBD analog and CBD to inhibit invasion was next compared (FIG. 25, panel C).

4T1 cells [3] = assay: Cell viability assay; format: cell-based, mouse; details: Mus musculus
Source text: (§2) The structure of O-1442 and O-1663 are almost identical with the exception of one R group. A smaller subset of the same analogs, including O-1442 and O-1663, were further screened for their ability to inhibit 4T1 breast cancer cell viability in anticipation of running in vivo experiments in immune competent mice (TABLE 5).

p8 and LC3 = assay: p8 mRNA and LC3 (autophagy marker) in MDA-MB231 cells; format: cell-based, human; details: two days
4T1 cells [4] = assay: 4T1 i.v. mouse model, advanced stage metastasis, treatment from day seven; format: in vivo; details: for medium increase in survival: 0.5 or 1 mg/kg daily from seven days after injection
Experimental: To determine whether CBD could inhibit the formation of lung tumor foci in more advanced stages of metastasis, mice were treated at a time point where visual lung metastatic foci were already formed (as shown at day seven in FIG. 7, panel A). Mice were injected i.v. with 4T1 cells were kept for one week in order to allow for the formation of visible lung metastatic foci. The mice were then treated with CBD.
In-vivo late stage metastatic studies using a Xenograph mouse model for human breast cancer with CBD. […] Lung metastases were generated in BALB/c mice after tail vein injection of 20×10^5 mouse 4T1 cells. […] One week after the tail vein injection of 20×10^5 mouse 4T1 cells, the tumor bearing mice were injected i.p. once a day with vehicle or 1 mg/kg and 10 mg/kg CBD for seven days. Visible lung metastases were counted and measured by using a dissecting microscope.
The activity of CBD and the O-1663 CBD analog to inhibit the formation of lung tumor foci in more advanced stages of metastasis was then compared. Mice were treated at a time point where visual lung metastatic foci were already formed. Mice were injected i.v. with 4T1 cells and kept for one week in order to allow for the formation of visible lung metastatic foci. The mice were then treated with CBD and the O-1663 CBD analog. […] A survival study was then carried out where the activity of CBD to O-1663 CBD analog was compared (FIG. 28, panel C).
In-vivo advanced stage metastasis survivability studies in a mouse model with CBD or O-1663 CBD analog. To determine whether cannabinoids could inhibit the formation of lung tumor foci in more advanced stages of metastasis, we treated mice at a time point where visual lung metastatic foci were already formed (FIG. 30, panel A). Mice injected tail vein with 4T1 cell were kept for one week in order to allow for the formation of visual lung metastatic foci measuring up to 1 mm. The mice where then treated with drug for two months.

ROS = ROS measurement in MDA-MB231 cells; format: cell-based, human; details: for generation of ROS: two days, approximate IC50 for CBD and THC
Source text: In culture, CBD-induced generation of ROS is a primary mechanism that leads to inhibition of cell growth, invasion, and survival across multiple cancers. The generation of ROS by CBD leads to the inhibition of Id-1 expression in breast cancer cells. […] The ability of CBD and the O-1663 CBD analog to stimulate the production of ROS was next compared. […] The involvement of CB2 receptors in the productions of ROS produced by CBD and the O-1663 CBD analog was next investigated.

MDA-MB231 cells [5] = assay: MTT cell proliferation/viability assay; details: for reversal of inhibition of cell viability by CB2 receptor antagonist SR14458: 2 days; for IC50: Homo sapiens
Source text: as §2, §1

[6] = MDA-MB-231, read-out: IC50, MDA-MB231

## CCCCC(C)(C)c1cc(O)c(C2CCC(C3CCCCC3)CC2)c(O)c1 (centres unmarked) [Compound O-1663]
U251 cells; U-251, read-out: IC50, U251
  IC50: 530 nM
4T1 cells [1]; 1 mg/kg
  animals with a metastatic foci >2 mm: one of five animals
  effect of CB2 receptor antagonist SR14458 on anti-metastatic activity: partially reversed by the antagonist
4T1 cells [1]
  total amount of metastatic foci: reduction of the total amount of metastatic foci
4T1 cells [1]; mouse, in vivo
  fold more potent than CBD at inhibiting lung metastatic foci>2 mm: 7.0 fold
  fold more potent than CBD at inhibiting total metastasis: 2.3 fold
MDA-MB231 cells [2]
  fold more potent than CBD at inhibiting invasion: 1.7 fold
MDA-MB231 cells [2]; 1.0 μM, two days, MDA-MB231 or U251 cells
  invasion by the cancerous cells compared with CBD: far superior to CBD in inhibiting invasion
MDA-MB231 cells [2]; MDA-MB-231, 72 h, read-out: IC50, invasion of MDA-MB231 cells
  IC50: 600 nM
4T1 cells [3]; 4T1, read-out: IC50, 4T1 cell viability
  IC50: 830 nM
p8 and LC3
  up-regulation of p8 and LC3: able to up-regulate p8 and the marker of autophagy LC3
4T1 cells [4]; 0.5 and 1 mg/kg
  reduction of percent metastasis compared with CBD: significantly more potent than CBD in reducing percent metastasis
4T1 cells [4]
  medium increase in survival: 30 days
4T1 cells [4]; dissection microscope
  mice without visible lung metastatic foci: 20%
4T1 cells [4]; treatment from day seven, 2 months
  mice still alive at end of study: 50%
ROS
  ROS reversed in the presence of SR14458: > 50%
  generation of ROS: significantly more potent and efficacious than CBD at generating ROS
MDA-MB231 cells [5]; 4T1 and MDA-MB231 cells
  reversal of inhibition of cell viability by CB2 receptor antagonist SR14458: partially reverse the inhibitory effects
MDA-MB231 cells [5]; [6]
  IC50: 1200 nM
MDA-MB231 cells [5]; second screen
  fold more active than CBD, MDA-MB231 cell viability: 2.2 fold

## C=C(C)[C@@H]1CCC(C)=C[C@H]1c1c(O)cc(CCCCC)cc1O [CBD, cannabidiol]
U251 cells; U-251, 72 h, read-out: CBD IC50, U251
  IC50: 600 nM
U251 cells; U-251, read-out: IC50, U251
  IC50: 2900 nM
4T1 cells [1]; 1 mg/kg daily from one day after injection
  median increase in survival: seven
4T1 cells [1]
  total amount of metastatic foci: reduction of the total amount of metastatic foci
4T1 cells [1]; 1 mg/kg
  effect of CB2 receptor antagonist SR14458 on anti-metastatic activity: not affected by co-administration with SR14458
4T1 cells [1]; i.p. daily two weeks, 0.1 to 5 mg/kg
  inhibition of total breast cancer metastasis: up to 75%
4T1 cells [1]; i.p. daily two weeks, CI=0.2-0.5
  EC50, total breast cancer metastasis: 0.3 mg/kg
MDA-MB231 cells [2]; 1.5 μM, two days, cells ectopically expressing Id-1
  cell invasiveness, (+)Id-1 cells: did not inhibit cell invasiveness
MDA-MB231 cells [2]; 1.5 μM, two days, empty pLXSN vector
  cell invasiveness, control (−)Id-1 cells: significant reduction in cell invasiveness
MDA-MB231 cells [2]; 0.1, 1.0 or 1.5 μM
  invasion of MDA-MB231 cells: significantly reduced the invasion
MDA-MB231 cells [2]; MDA-MB-231, 72 h, treated 3 days, modified Boyden chambers, read-out: IC50, invasion of MDA-MB231 cells
  IC50: 1000 nM
MDA-MB231 cells [2]; MDA-MB-231, Boyden chamber, confidence limits 110-610, read-out: IC50 for invasion
  IC50: 260 nM
4T1 cells [3]; 4T1, Table 5, read-out: IC50, 4T1 cell viability
  IC50: 1800 nM
p8 and LC3
  up-regulation of p8 and LC3: did not produce up-regulation of p8 and LC3
4T1 cells [4]; 1 mg/kg and 10 mg/kg i.p. for seven days, from one week after injection
  reduction in the number of metastases: ≥ 70%
4T1 cells [4]; 1 mg/kg starting on day seven
  median increase in survival: only a day
4T1 cells [4]; 0.5, 1 or 10 mg/kg i.p. for seven days
  growth of established lung metastatic foci: dose-dependently reduced the growth of established lung metastatic foci
4T1 cells [4]
  medium increase in survival: 4 days
4T1 cells [4]; treatment from one week after injection
  average median survival: 38 days
ROS
  reversal of ROS in the presence of SR14458: small but significant reversal of ROS
  generation of ROS: robust up-regulation of ROS
MDA-MB231 cells [5]; 4T1 and MDA-MB231 cells
  reversal of inhibition of cell viability by CB1 receptor antagonist: had no effect on reversing the activity of CBD
  reversal of inhibition of cell viability by ROS scavenger α-TOC: able to reverse the inhibitory effects of CBD
  reversal of inhibition of cell viability by CB2 receptor antagonist SR14458: not significant
MDA-MB231 cells [5]; MDA-MB-231, 72 h, read-out: IC50, antiproliferative, MDA-MB231
  IC50: 1300 nM
MDA-MB231 cells [5]; [6]
  IC50: 2200 nM
MDA-MB231 cells [5]; MDA-MB-231, read-out: IC50, MDA-MB231 cell viability
  IC50: 1900 nM
